The record followed here is ChEMBL document CHEMBL1137167, “Potent inhibition of checkpoint kinase activity by a hymenialdisine-derived indoloazepine” (Bioorg Med Chem Lett, 2004).

Each structure is given as a SMILES string.

The target of assay [1] is Protein kinase C alpha type (Homo sapiens, UniProt P17252). In words: In vitro inhibitory concentration against human protein kinase C alpha (PKCa) by using [gamma-33P]-ATP] as radioligand.
The target in assay [2] is T1, Serine/threonine-protein kinase Chk1 (Homo sapiens, UniProt O14757).
T1 sequence (O14757 whole entry): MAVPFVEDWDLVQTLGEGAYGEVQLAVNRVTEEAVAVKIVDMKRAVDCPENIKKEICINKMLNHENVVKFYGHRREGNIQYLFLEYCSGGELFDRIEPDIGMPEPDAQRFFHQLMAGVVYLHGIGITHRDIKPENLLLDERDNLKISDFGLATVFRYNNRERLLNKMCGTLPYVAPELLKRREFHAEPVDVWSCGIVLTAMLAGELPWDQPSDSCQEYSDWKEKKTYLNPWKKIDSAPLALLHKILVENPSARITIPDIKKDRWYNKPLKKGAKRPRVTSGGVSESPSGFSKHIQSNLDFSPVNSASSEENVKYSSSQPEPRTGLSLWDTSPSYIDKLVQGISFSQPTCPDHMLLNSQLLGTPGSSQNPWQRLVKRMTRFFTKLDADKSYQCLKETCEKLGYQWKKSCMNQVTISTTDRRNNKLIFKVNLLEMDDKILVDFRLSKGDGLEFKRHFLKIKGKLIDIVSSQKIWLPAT
In words: In vitro inhibitory concentration against checkpoint kinase 1 (Chk1) by using [gamma-33P]-ATP] as radioligand.

For assay [3], the target named is Serine/threonine-protein kinase Chk2 (Homo sapiens, UniProt O96017). In words: In vitro inhibitory concentration against checkpoint kinase 2 (Chk2) by using [gamma-33P]-ATP] as radioligand.
The target of assay [4] is Protein kinase C beta type (Homo sapiens, UniProt P05771). The assay is described as follows: In vitro inhibitory concentration against human protein kinase C beta-2 (PKCbetaII) by using [gamma-33P]-ATP] as radioligand.
Assay [5] addresses Casein kinase II subunit alpha (Homo sapiens, UniProt P68400). In words: In vitro inhibitory concentration against human casein kinase 2 (CK2) by using [gamma-33P]-ATP] as radioligand.
In assay [6] the target is Casein kinase I isoform delta (Homo sapiens, UniProt P48730). The assay is described as follows: In vitro inhibitory concentration against human casein kinase 1 delta (CK1 delta) by using [gamma-33P]-ATP] as radioligand.
Chain of Casein kinase I isoform delta (P48730 whole entry, canonical isoform): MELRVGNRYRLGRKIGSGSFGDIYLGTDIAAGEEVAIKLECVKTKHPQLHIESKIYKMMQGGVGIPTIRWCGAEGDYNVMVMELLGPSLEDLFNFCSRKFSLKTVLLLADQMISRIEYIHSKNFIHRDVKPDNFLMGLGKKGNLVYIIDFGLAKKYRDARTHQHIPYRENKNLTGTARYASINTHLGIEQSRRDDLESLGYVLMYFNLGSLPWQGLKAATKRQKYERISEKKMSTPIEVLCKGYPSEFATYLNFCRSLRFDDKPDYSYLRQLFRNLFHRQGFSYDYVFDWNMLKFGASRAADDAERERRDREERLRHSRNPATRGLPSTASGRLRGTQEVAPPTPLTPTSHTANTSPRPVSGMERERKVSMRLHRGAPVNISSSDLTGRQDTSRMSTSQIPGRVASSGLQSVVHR

Chain of Serine/threonine-protein kinase Chk2 (O96017 whole entry): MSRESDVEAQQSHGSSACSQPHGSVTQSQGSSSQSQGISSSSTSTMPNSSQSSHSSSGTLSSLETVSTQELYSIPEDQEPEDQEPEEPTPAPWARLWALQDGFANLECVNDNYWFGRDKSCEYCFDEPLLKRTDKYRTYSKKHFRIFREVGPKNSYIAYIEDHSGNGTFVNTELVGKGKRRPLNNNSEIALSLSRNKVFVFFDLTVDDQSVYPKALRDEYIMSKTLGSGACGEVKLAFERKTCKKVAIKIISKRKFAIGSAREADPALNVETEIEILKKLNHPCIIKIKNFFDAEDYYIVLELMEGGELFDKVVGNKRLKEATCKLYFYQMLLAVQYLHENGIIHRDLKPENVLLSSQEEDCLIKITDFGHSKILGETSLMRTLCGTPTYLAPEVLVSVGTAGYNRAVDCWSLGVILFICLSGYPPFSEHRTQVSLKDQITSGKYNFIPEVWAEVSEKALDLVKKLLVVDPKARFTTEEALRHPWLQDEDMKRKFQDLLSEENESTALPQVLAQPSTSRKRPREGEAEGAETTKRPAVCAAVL
Chain of Casein kinase II subunit alpha (P68400 whole entry, canonical isoform): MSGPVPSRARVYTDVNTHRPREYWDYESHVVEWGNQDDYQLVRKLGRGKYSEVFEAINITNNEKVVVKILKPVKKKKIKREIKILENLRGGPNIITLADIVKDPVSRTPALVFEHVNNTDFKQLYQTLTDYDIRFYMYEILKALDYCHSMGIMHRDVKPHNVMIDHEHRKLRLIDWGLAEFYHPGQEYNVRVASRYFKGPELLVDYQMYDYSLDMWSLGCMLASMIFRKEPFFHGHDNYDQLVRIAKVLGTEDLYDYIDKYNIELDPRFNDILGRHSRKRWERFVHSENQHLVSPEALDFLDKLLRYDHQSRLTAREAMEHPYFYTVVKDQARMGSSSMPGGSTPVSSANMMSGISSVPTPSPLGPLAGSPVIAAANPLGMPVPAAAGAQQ
Chain of Protein kinase C beta type (P05771 whole entry): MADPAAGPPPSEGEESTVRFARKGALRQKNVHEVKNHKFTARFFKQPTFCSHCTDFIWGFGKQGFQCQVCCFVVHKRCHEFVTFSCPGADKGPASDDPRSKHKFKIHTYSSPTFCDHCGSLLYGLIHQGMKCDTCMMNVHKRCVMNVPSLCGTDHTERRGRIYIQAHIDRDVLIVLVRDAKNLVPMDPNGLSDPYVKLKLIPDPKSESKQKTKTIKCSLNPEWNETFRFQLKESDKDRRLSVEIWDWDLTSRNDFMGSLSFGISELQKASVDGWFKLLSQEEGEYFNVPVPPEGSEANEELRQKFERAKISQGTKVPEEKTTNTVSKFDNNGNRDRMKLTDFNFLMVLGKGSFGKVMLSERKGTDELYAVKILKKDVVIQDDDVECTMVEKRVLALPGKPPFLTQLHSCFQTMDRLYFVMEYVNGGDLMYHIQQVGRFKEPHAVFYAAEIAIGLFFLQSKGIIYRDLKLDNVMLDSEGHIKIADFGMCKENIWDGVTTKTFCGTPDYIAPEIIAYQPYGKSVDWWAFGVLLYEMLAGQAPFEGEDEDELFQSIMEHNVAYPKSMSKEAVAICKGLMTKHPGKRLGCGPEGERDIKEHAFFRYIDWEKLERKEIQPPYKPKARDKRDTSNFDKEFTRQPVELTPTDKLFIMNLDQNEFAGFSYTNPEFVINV

For the compound `Nc1nc(C2=C3C(=Nc4ccccc43)C(=O)NCC2)c(O)[nH]1`, the IC50 (usually the concentration that inhibits the measured activity by half) is 2540 nM in assay [1]; 237 nM in assay [2]; 8 nM in assay [3]; 3380 nM in assay [4]; > 10000 nM in assay [5]; 1350 nM in assay [6].
Take `NC1=N/C(=C2/CCNC(=O)c3[nH]ccc32)C(=O)N1` [DEBROMOHYMENIALDISINE]: the IC50 in assay [2] is 725 nM; in assay [3] it was 183 nM.
Take `NC1=NC(=O)/C(=C2\CCNC(=O)c3[nH]c(Br)cc32)N1` [HYMENIALDISINE]: the IC50 in assay [2] was found to be 1950 nM; in assay [3], 42 nM; in assay [5], 7000 nM; in assay [6], 35 nM.
